Consider 30 compounds from patent publication US20080318961A1, “Drugs comprising chymase inhibitors and ACE inhibitors as effective ingredients” (Teijin, priority 2001, published 2008).

Data set [1] has as its system hamster myocardial infarction models. The following applies: Life Sci. 2002, Vol. 71, p. 437; cited from earlier work.
The next data set concerns hamster chymase. Briefly: Accelerated vascular permeation model by intradermal injection of hamster chymase. Format: in vivo, Syrian hamsters. The following applies: 0.1% (w/w) in feed for 5 days; Evans Blue, 30 minutes after intradermal hamster chymase. The protocol: Compound No. 33 was mixed with powder feed to a content of 0.1% (w/w) to prepare a feed which was given to hamsters (Syrian hamsters, male, 7-week-old) for 5 days. Under ether anesthesia, the hamster backs were shaved and the hamster chymase was intradermally injected (hamster chymase: 1, 0.3, 0.1 μg/site; vehicle: 0.15 M NaCl, 0.1 mg/ml BSA, 10 mM Pi-Na, pH 7.0). Evans Blue (1% (w/v) solution, 5 ml/kg) was intravenously administered just prior to the intradermal injection, and the blue spots produced by chymase intradermal injection were quantified. Specifically, the hamsters were bled to death from the abdominal aorta 30 minutes after intradermal injection, and the skin was sampled using the blueing spots as an index. The sampled skin was placed in a glass test tube, the dye was extracted with 2 ml of EB extract (acetone:0.3% Na2SO4=7:3), and the dye leakage was measured by colorimetry using a spectrophotometer (620 nm).

A further data set concerns the target T1, human mast cell chymase (Homo sapiens, UniProt P23946).
T1 construct: made in house; host or cells: insect cells (Th5), recombinant baculovirus
T1 sequence (P23946 22-247): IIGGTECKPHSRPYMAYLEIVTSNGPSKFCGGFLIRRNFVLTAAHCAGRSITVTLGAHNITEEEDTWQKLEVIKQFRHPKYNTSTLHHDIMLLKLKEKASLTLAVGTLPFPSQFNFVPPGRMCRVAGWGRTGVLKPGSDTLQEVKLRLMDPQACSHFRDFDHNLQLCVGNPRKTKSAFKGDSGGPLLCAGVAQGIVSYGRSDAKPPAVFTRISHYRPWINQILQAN
Briefly: Recombinant human mast cell chymase enzymatic activity inhibition. Format: biochemical. The protocol:
Specifically, Heparin Sepharose (Pharmacia) was used for purification from a culture supernatant of insect cells (Th5) infected with recombinant baculovirus containing cDNA coding for human mast cell chymase.
The time-related change in absorbance at 405 nm was measured to determine the inhibiting activity.

The nature of data set [2]: Blood drug concentrations upon oral administration to hamsters. Format: in vivo. The following applies: hamster, serum, 0.1% (w/w) in feed for 5 days, mean±S.E., N=4, read-out: hamster serum concentration of the parent drug. The procedure: The chymase inhibitor designated as Compound No. 33 was mixed with MF powder feed to a content of 0.1% (w/w) to prepare a hamster feed which was given to hamsters for 5 days. Blood was sampled from the abdominal aorta under ether anesthesia, the serum was extracted, and the serum compound concentrations were measured by high-performance liquid chromatography.

The next data set deals with hamster chymase 1 (Mesocricetus auratus, UniProt O08732). Briefly: Chymase-inhibiting activity using hamster chymase. It is filed as biochemical. The note with it: Compound No. 33; read-out: Inhibition constant, Hamster chymase. The procedure: After adding 2 μl of a DMSO solution containing a compound of the invention to 50 μl of Buffer A (0.5-3.0 M NaCl, 50 mM Tris-HCl, pH 8.0) containing 1-5 ng of the active form human mast cell chymase obtained in Example 1, there was added 50 μl of Buffer A containing 0.5 mM succinyl-alanyl-histidyl-prolyl-phenylalanylparanitroanilide (Bachem) as a substrate, and reaction was conducted at room temperature for 5 minutes. The time-related change in absorbance at 405 nm was measured to determine the inhibiting activity.
Chain of hamster chymase 1 (O08732 entry or part of it): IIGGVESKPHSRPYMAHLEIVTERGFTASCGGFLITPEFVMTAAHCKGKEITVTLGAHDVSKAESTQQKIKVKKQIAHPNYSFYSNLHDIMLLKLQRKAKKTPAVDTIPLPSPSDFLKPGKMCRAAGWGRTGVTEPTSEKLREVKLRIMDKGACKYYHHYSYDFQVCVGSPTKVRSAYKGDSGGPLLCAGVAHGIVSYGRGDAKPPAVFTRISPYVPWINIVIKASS
Hamster chymase was obtained from a crude product extracted from hamster tongue tissue with an acidic buffer solution and subsequently purified with a Phenyl-Sepharose column (elution: 0.15 M NaCl, 50 mM sodium phosphate, pH 6.5, 50% ethylene glycol) and a Heparin-Cellulofine column (elution: 0.5-2.0 M NaCl). The protein was identified as hamster chymase 1 based on the N-terminal amino acid sequence, and activity inhibition was measured by the same method as for the human chymase.

Another data set concerns the target T2, Trypsin (Bos taurus, UniProt P00760).
T2 construct: gene PRSS1
T2 sequence (P00760 24-246): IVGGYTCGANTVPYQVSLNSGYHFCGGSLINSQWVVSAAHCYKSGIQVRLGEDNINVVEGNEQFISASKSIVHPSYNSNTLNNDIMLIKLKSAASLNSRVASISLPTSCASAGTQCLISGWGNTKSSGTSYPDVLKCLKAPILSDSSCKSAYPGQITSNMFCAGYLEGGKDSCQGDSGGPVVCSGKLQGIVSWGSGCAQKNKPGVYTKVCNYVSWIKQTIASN
Briefly: Enzyme selectivity: trypsin inhibition. Format: biochemical. The following applies: Compound No. 33; read-out: Inhibition constant, Trypsin.

A further data set deals with Human tryptase (Homo sapiens, UniProt Q15661). Briefly: Enzyme selectivity: human tryptase inhibition. It is filed as biochemical. The following applies: Compound No. 33; read-out: Inhibition constant, Human tryptase.
Chain of Human tryptase (Q15661 31-275): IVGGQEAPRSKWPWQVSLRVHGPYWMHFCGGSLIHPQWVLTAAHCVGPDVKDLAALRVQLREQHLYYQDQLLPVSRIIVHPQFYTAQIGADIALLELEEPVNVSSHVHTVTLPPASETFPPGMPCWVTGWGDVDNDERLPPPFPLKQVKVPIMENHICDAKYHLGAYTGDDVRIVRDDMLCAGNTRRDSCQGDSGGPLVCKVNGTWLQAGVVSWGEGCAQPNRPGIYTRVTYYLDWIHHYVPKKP
In another data set the target is Chymotrypsin (Bos taurus, UniProt P00766). Briefly: Enzyme selectivity: chymotrypsin inhibition. Format: biochemical. The following applies: Compound No. 33; read-out: Inhibition constant, Chymotrypsin.
Data set [3] has as its system Human chymase-overexpressing mice (TGM). Briefly: Angiotensin-elicited blood pressure increase model using chymase-overexpressing mice. The note with it: continuous angiotensin I infusion; for suppression of vasopressor effect (blood pressure): compared to control group, combination normal from 10th day, P<0.05. It is filed as in vivo. The protocol: Human chymase-overexpressing mice (hereinafter abbreviated as “TGM”) created by introduction of the human chymase gene with an angiotensin II-producing function were used as the model animals. Specifically, 8- to 10-week-old TGM mice were used, and angiotensin I was continuously infused with a microosmostic pump embedded under the mouse skin (70 μg/kg/min) to create continuous hypertensive mouse models. The continuous infusion of angiotensin I was confirmed to elicit a vasopressor response of about 30 mmHg in the TGM (n=6) with respect to the wild type (n=8), while depressor action was examined in groups administered a chymase inhibitor (Compound No. 33, 0.1% diet, n=7), an ACE inhibitor (temocapril hydrochloride, 2.0 mg/kg/day, n=6), an angiotensin receptor blocker (ARB) (Valsartan, 14 mg/kg/day, n=7) and a chymase inhibitor and ACE inhibitor simultaneously (Compound No. 33, 0.1% diet, and temocapril hydrochloride, 2.0 mg/kg/day, n=6). The letter “n” indicates the number of individuals. […] […].

A further data set deals with Mouse chymase. Briefly: Enzyme selectivity: mouse chymase inhibition. The note with it: Compound No. 33; read-out: Inhibition constant, Mouse chymase. It is filed as biochemical.
Data set [4] concerns canine myocardial infarction models. The note with it: 75th Annual Meeting of the Japanese Pharmacological Society; cited from earlier work.
In another data set the test system is chymase. The following applies: WO00/51640, J. Med. Chem., 2001, Vol. 44, p. 1286; cited from earlier work.
[5] abbreviates: stated in parentheses for Compounds A and B, read-out: human chymase IC50 (reference compounds).
Setting [6] is: recombinant active form human mast cell chymase, room temperature 5 minutes, absorbance 405 nm, read-out: IC50, human mast cell chymase inhibiting activity.

Structures can show the parent of a compound that is named as a salt. Where two headings read alike, the source gives them in different places. Where only a bound is given, the exact number is not on record here.

`CCOc1ccccc1CC1C(=O)N(C(=O)NC(c2ccc(C)cc2)c2ccc(C)cc2)C1Oc1ccc(C(=O)O)cc1` (stereo not shown) [4-[1-{[bis(4-methylphenyl)methyl]carbamoyl}-3-(2-ethoxybenzyl)-4-oxoazetidin-2-yloyl]benzoic acid]: in data set [1], the “effect when administered alone to hamster myocardial infarction models” value was “exhibit an effect”. Consider `O=C1CN(c2ccc(Cl)cc2)C(=O)N1S(=O)(=O)c1ccc(Cl)cc1` [Compound A, reference compound], for which the “dye leakage (accelerated vascular permeation)” value (shortened to “dye leakage”) in the data set with hamster chymase is recorded as “no clear suppressing action”. The IC50 (in general, the concentration that gives 50% inhibition) on human mast cell chymase (setting [5]) was found to be 0.009 µM.

In the case of `[O-][S+](Cc1ccc(Cl)cc1)c1nnc(OCc2ccc(Cl)cc2)c2nccn12` (stereo not shown) [Compound B, reference compound], the “dye leakage” value in the data set with hamster chymase is reported as “no clear suppressing action”. Besides, the IC50 at human mast cell chymase (setting [5]) is 0.03 µM. For the compound `O=C(O)CCCSc1nc2ccccc2n1Cc1cccc2ccccc12` [Compound No. 33], in data set [2], the concentration at 5 days was found to be 7.89 ± 1.09 µM. The “dye leakage” value with hamster chymase was “decrease in dye leakage”. Further, the Ki at hamster chymase 1 was 0.0306 ± 0.0038 µM; at Trypsin, greater than 10 µM; on Human tryptase, greater than 10 µM; on Chymotrypsin, greater than 10 µM; on human mast cell chymase (Compound No. 33, read-out: Inhibition constant, Human chymase), 0.0062 ± 0.0022 µM; on Mouse chymase, 0.0734 ± 0.0242 µM. In data set [3], the “suppression of cardiac hypertrophy” value is reported as “no notable suppression”. Also, the “suppression of vasopressor effect (blood pressure)” value in [3] is listed as “no notable suppression”. For the same compound, on human mast cell chymase (setting [6]), the IC50 is 0.01 to 0.1 µM. `CCCCC(=O)N(Cc1ccc(-c2ccccc2-c2nnn[nH]2)cc1)[C@H](C(=O)O)C(C)C` [Valsartan]: the “suppression of cardiac hypertrophy” value in [3] is on record as “no notable suppression”. Consider `Cc1ccc2c(c1)c(Cn1c(SCCCC(=O)O)nc3ccccc31)cn2C` [compound 6], for which the IC50 at human mast cell chymase (setting [6]) lay in the range of 0.01 to 0.1 µM. Still for that read-out and setting: next, `Cn1cc(Cn2c(SCCCC(=O)O)nc3ccccc32)c2c(Cl)cccc21` [compound 9]: 0.01 to 0.1 µM. The same measure, in the same setting: next, `Cn1cc(Cn2c(SCCCC(=O)O)nc3ccccc32)c2c(F)cccc21` [compound 10]: 0.01 to 0.1 µM. Same read-out and setting: next, `O=C(O)CCCSc1nc2ccccc2n1Cc1csc2ccccc12` [compound 20]: 0.01 to 0.1 µM; `O=C(O)CCCSc1nc2ccccc2n1Cc1csc2ccc(Cl)cc12` [compound 22]: 0.01 to 0.1 µM. Regarding `Cc1ccc2scc(Cn3c(SCCCC(=O)O)nc4ccccc43)c2c1` [compound 24], the IC50 at human mast cell chymase (setting [6]) lay within 0.01 to 0.1 µM. In the case of `O=C(O)CCCSc1nc2ccccc2n1Cc1csc2cccc(Cl)c12` [compound 27], at human mast cell chymase (setting [6]), the IC50 lay within 0.01 to 0.1 µM. With `Cc1cc(C)c2c(Cn3c(SCCCC(=O)O)nc4ccccc43)csc2c1` [compound 31], at human mast cell chymase (setting [6]), the concentration for half-maximal inhibition (IC50) was 0.01 to 0.1 µM. Same read-out and setting: next, `COc1ccc2c(c1)nc(SCCCC(=O)O)n2Cc1cn(C)c2cccc(Cl)c12` [compound 45]: 0.01 to 0.1 µM; `COc1ccc2c(c1)nc(SCCCC(=O)O)n2Cc1csc2ccccc12` [compound 56]: 0.01 to 0.1 µM.

In the case of `COc1ccc2c(c1)nc(SCCCC(=O)O)n2Cc1csc2cccc(C)c12` [compound 62], the half-maximal inhibitory concentration (IC50) on human mast cell chymase (setting [6]) was 0.01 to 0.1 µM. Still for that read-out and setting: to `N#Cc1ccc2c(c1)nc(SCCCC(=O)O)n2Cc1csc2ccccc12` [compound 92] belongs 0.01 to 0.1 µM. Still for that read-out and setting: to `Cc1ccc2c(c1)nc(SCCCC(=O)O)n2Cc1csc2ccccc12` [compound 128] belongs 0.01 to 0.1 µM; to `Cc1cc2nc(SCCCC(=O)O)n(Cc3cn(C)c4ccccc34)c2cc1C` [compound 182], 0.01 to 0.1 µM; to `Cc1cc2nc(SCCCC(=O)O)n(Cc3cn(C)c4cccc(C)c34)c2cc1C` [compound 187], 0.01 to 0.1 µM. In the case of `Cc1cc2nc(SCCCC(=O)O)n(Cc3cn(C)c4cccc(Cl)c34)c2cc1C` [compound 189], the IC50 on human mast cell chymase (setting [6]) fell in the range of 0.01 to 0.1 µM. Still for that read-out and setting: next, `Cc1cc2nc(SCCCC(=O)O)n(Cc3csc4ccccc34)c2cc1C` [compound 200]: 0.01 to 0.1 µM; `Cc1cc2nc(SCCCC(=O)O)n(Cc3csc4ccc(Cl)cc34)c2cc1C` [compound 202]: 0.01 to 0.1 µM; `Cc1ccc2scc(Cn3c(SCCCC(=O)O)nc4cc(C)c(C)cc43)c2c1` [compound 204]: 0.01 to 0.1 µM. Still for that read-out and setting: next, `Cc1cc2nc(SCCCC(=O)O)n(Cc3csc4cccc(C)c34)c2cc1C` [compound 206]: 0.01 to 0.1 µM. In the case of `COc1ccc2nc(SCCCC(=O)O)n(Cc3csc4ccc(C)cc34)c2c1` [compound 240], the half-maximal inhibitory concentration (IC50) at human mast cell chymase (setting [6]) lay within 0.01 to 0.1 µM. Regarding `COc1ccc2nc(SCCCC(=O)O)n(Cc3csc4cccc(C)c34)c2c1` [compound 242], the IC50 on human mast cell chymase (setting [6]) was in the range of 0.01 to 0.1 µM. Take `O=CNc1cnc(-c2ccccc2)n(CC(=O)NC(Cc2ccccc2)C(=O)C(=O)CCCOc2ccccn2)c1=O` (stereo not shown) [formula (III-I)]: in data set [4], the “efficacy when orally administered to canine myocardial infarction models” value was “efficacious”. Consider `COC(=O)c1ccc2oc(C(=O)C(Cc3ccccc3)NC(=O)Cn3c(-c4ccccc4OC)ncc(N)c3=O)nc2c1` (stereo not shown) [formula (IV-I)], for which, in the data set with chymase, the “chymase inhibiting activity by oral administration to mouse allergy models” value was “exhibit chymase inhibiting activity”. In the case of `CCOC(=O)[C@H](CCc1ccccc1)N[C@H]1CS[C@H](c2cccs2)CN(CC(=O)O)C1=O` [temocapril hydrochloride], in data set [3], the “suppression of cardiac hypertrophy” value is “no notable suppression” and the “suppression of vasopressor effect (blood pressure)” value is given as “no notable suppression”.
